The values that follow come from patent US9567623B2, “Coelenterazine analogs” (JNC CORPORATION, priority 2013, dated 2017).

Series [1] addresses T1, nanoKAZ (mutated catalytic 19 kDa domain of Oplophorus luciferase) (Oplophorus gracilirostris, UniProt Q9GV45, A31E/A60N/A81I/F95D/I117V/K70R/L54V/L99Q/M102K/N193R/P142E/Q151K/Q38R/Q45L/V71I/Y165I).
T1 construct: secretory signal peptide of Gaussia luciferase (GLsp) (N, cleaved yes); made in house; host or cells: CHO-K1 transiently transfected with pcDNA3-GLsp-nanoKAZ; unpurified culture medium used as the enzyme solution
Kind of series: Luminescence activity of secreted codon-optimized nanoKAZ domain protein with coelenterazine analogs as substrates. The series is classed as biochemical. Conditions: for Relative maximum luminescence intensity (Imax) / Relative amount of integrated luminescence intensity (1 min.): relative to coelenterazine = 1.0; for Relative maximum luminescence intensity (Imax): 1 μg substrate, 50 mM Tris-HCl (pH 7.6)-10 mM EDTA, 60 seconds; for Relative amount of integrated luminescence intensity (1 min.): integrated for 60 seconds; for Luminescence pattern (decay): FIG. 3, recombinant nanoKAZ. Here is the method: The Chinese hamster ovary-derived cell line CHO-K1 was cultured in Ham's F-12 medium (manufactured by Wako Pure Chemical Industries, Ltd.) containing 10% (v/v) calf fetal serum (manufactured by Biowest Inc.), and cultured in DMEM (manufactured by Wako Pure Chemical Industries, Ltd.) containing 10% (v/v) calf fetal serum (manufactured by Biowest Inc.). The respective cells were seeded in a 6-well culture plate (n=2) with 1×10^5 cells/well/2 mL medium, and cultured in an incubator at 37° C. in 5% CO2, respectively. After 24 hours, the purified pcDNA3-GLsp-nanoKAZ plasmid was transfected into CHO-K1 cells using a FuGene HD Transfection Kit (manufactured by Promega Corp.), which was used in the subsequent experiment. Specifically, 1 μg of the pcDNA3-GLsp-nanoKAZ expression vector and 3 μL of FuGene HD were added to 100 μL of medium, which was allowed to stand at room temperature for 15 minutes. Then 100 μL of the DNA-FuGene complex solution was added to the cells in the 6 wells. After incubation for 48 hours, the culture medium was recovered and used as the secreted nanoKAZ enzyme solution for assay.
The enzyme solution, 5 μL, for assay obtained in EXAMPLE 4 (2) was added to 100 pt of 50 mM Tris-HCl (pH 7.6)-10 mM EDTA (Wako Pure Chemical Industries) containing 1 μg each of various coelenterazine analogs to initiate the luminescence reaction. The luminescence activity was determined by a luminometer (AB2200, manufactured by Atto Company) for 60 seconds and expressed by the maximum luminescence intensity (Imax) and the relative light units (du) of the lumimescence intensity integrated for 60 seconds.
The coelenterazine analogs used for substrate specificity analysis except for the analog described in EXAMPLE 1 were synthesized by the methods as described in the journals below, respectively. Specifically, bis-coelenterazine was synthesized by the method described in Nakamura et al. (1997) Tetrahedron Lett. 38: 6405-6406; Furimazine (Compound No. 3939 referred to in the journal) and C6d-coelenterazine (Compound No. 3840 referred to in the journal) by the method described in Hall et al. (2012) ACS Chem. Biol. […]; and the C2-coelenterazine analogs by the method described in Inouye et al (2010) Anal. Biochem. 407: 247-252. The enzyme solution of the culture medium in which nanoKAZ was secreted by the method as described in EXAMPLE 4 (2) was used for determining the luminescence activity with coelenterazine or its analogs. […] As a result, the luminescence substrates which can markedly improve the luminescence intensity and the amount of the integrated luminescence intensity to compare with furimazine are bis-coelenterazine and C6d-f-coelenterazine, showing a continuous luminescence without a decay of the luminescence intensity.

Another series has as its target T2, Renilla luciferase (Renilla reniformis, UniProt P27652).
T2 construct: made in house
T2 sequence (P27652 1-311): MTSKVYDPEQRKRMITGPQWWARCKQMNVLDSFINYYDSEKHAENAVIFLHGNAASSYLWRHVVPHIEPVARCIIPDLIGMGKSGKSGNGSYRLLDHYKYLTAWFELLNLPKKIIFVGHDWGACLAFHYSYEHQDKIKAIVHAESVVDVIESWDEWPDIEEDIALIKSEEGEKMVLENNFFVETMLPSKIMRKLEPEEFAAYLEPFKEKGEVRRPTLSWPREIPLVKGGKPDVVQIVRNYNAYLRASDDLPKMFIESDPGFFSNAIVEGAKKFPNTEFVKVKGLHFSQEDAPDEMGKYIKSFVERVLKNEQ
The series can be described thus: Substrate specificity of various luciferases: Renilla luciferase. The series is classed as biochemical. Conditions: relative to coelenterazine = 100. Here is the method:
(§1) The preparation of various luciferases and the determination of their luminescence activities were carried out in accordance with the methods as previously reported. The catalytic 19 kDa domain of Oplophorus luciferase was produced by the method described in Inouye S. & Sasaki S. (2007) Protein Express. Purif. 56, 261-268, Gaussia luciferase by the method described in Inouye S & Sahara Y. (2008) Biochem. Biophys. Res. Commun. 368, 600-605, Renilla luciferase and Renilla luciferase 547 by the method described in Inouye S. et al. (2013) Protein Express. Purif. 88, 150-156, and aequorin by the method described in Inouye S et al. (2010) Anal. Biochem. 407, 247-252, respectively, and used.

A further series concerns Gaussia luciferase. Kind of series: Substrate specificity of various luciferases: Gaussia luciferase. Type of series: biochemical. Conditions: relative to coelenterazine = 100. As to the method: as §1
A further series deals with T3, Aequorin (Aequorea victoria, UniProt P07164).
T3 construct: made in house
The series is classed as biochemical, jellyfish. Conditions: relative to coelenterazine = 100. As to the method:
as §1

The target of series [2] is T4, Catalytic 19 kDa domain of Oplophorus luciferase (Oplophorus gracilirostris, UniProt Q9GV45).
T4 construct: The catalytic 19 kDa domain of Oplophorus luciferase was produced by the method described in; made in house
The series can be described thus: Substrate specificity of various luciferases: catalytic 19 kDa domain of Oplophorus luciferase. Type of series: biochemical, Oplophorus grachlorostris. The following applies: for Maximum Luminescence Intensity (Imax, %) / Relative Amount of Integrated Luminescence Intensity (1 min, %): relative to coelenterazine = 100. Here is the method: as §1

For another series, the system named is Renilla luciferase 547. Kind of series: Substrate specificity of various luciferases: Renilla luciferase 547. Type of series: biochemical. The following applies: relative to coelenterazine = 100. As to the method: as §1
The nature of series [3]: Stability of coelenterazine analogs in aqueous solution (HPLC). The series is classed as physicochemical. The following applies: 30 mM Tris-HCl (pH 7.6). Here is the method: The stability of coelenterazine analogs in an aqueous solution was examined by dissolving 10 μg of coelenterazine analogs in 0.5 mL of 30 mM Tris-HCl (pH 7.6), allowing the solution to stand at 37° C. for 22 hours, and then the degradation of coelenterazine analogs was determined by HPLC analysis. The HPLC analysis was performed by the modified method as described in Inouye S. et al. (2013) Protein Express. Purif. 88, 150-156.

[4] abbreviates: incubation time at 37° C. 0 hour.
The mark [5] stands for this setting: incubation time at 37° C. 22 hours.

T4 sequence (Q9GV45 28-196): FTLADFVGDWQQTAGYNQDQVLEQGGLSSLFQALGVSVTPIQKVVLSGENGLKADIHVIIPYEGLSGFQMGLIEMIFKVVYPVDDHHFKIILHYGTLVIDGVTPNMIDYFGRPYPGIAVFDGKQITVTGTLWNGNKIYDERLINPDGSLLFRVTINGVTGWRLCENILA
T1 sequence (Q9GV45 other isoform, or with tags, fused parts or gaps with the stated changes): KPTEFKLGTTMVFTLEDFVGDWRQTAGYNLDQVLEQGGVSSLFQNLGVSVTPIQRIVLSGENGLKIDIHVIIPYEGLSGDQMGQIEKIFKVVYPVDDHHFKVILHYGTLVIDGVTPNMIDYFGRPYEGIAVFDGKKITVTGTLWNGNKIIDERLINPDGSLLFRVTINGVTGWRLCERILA
T3 sequence (P07164 8-196): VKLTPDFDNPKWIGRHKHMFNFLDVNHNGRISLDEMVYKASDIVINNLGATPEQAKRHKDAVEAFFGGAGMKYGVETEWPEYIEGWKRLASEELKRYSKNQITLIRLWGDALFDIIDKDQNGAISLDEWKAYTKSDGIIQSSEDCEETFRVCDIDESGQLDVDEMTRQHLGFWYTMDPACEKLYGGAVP

Consider `Oc1ccc(-c2cn3c(O)c(Cc4ccccc4)nc3c(Cc3ccccc3)n2)cc1` [h-Coelenterazine], for which, in series [1], the “Relative maximum luminescence intensity (Imax)” value was found to be 17.0. Also, the “Relative amount of integrated luminescence intensity (1 min.)” value (“Relative amount … (1 min.)” for short) in series [1] is 10.1. Moreover, the “Maximum Luminescence Intensity (Imax, %)” value at Renilla luciferase is recorded as 68.5%; in the series on Gaussia luciferase it was 8.2%; at Aequorin it was 84.0%; in series [2], 92.6%; in the series on Renilla luciferase 547, 24.5%. For the same compound, the “Relative Amount of Integrated Luminescence Intensity (1 min, %)” value (“Relative Amount … (1 min, %)” for short) at Renilla luciferase is reported as “(73.5) %”; in the series on Gaussia luciferase, “(12.1) %”; at Aequorin, “(68.0) %”; in series [2] it was “(101) %”; in the series on Renilla luciferase 547, “(16.4) %”.

In the case of `O=c1c(Cc2ccc(F)cc2)nc2c(Cc3ccccc3)[nH]c(-c3ccccc3)cn1-2` [C6d-f-Coelenterazine, C6d-f-coelenterazine], the “Luminescence pattern (decay)” value in series [1] is given as “did not exhibit a rapid decay”. Further, in series [1], the “Relative maximum luminescence intensity (Imax)” value is given as 10.1. For the same compound, the “Relative amount … (1 min.)” value in series [1] was 10.1. Also, the “Maximum Luminescence Intensity (Imax, %)” value at Renilla luciferase was 0.07%; in the series on Gaussia luciferase, 0%; on Aequorin it was 0.12%; in series [2], 100%; with Renilla luciferase 547, 0.17%. Besides, the “Relative Amount … (1 min, %)” value on Renilla luciferase is on record as “(0.01) %”; in the series on Gaussia luciferase, “(0) %”; on Aequorin, “(0.19) %”; in series [2], “(105) %”; with Renilla luciferase 547 it was “(0.13) %”. Moreover, the “Residual Ratio of Coelenterazine Analog (%)” value in series [3] (setting [4]) is listed as 100%; in series [3] (setting [5]), 49%. For the same compound, the Suitability as substrate result in series [2] (in words, from TABLE 2) is listed as “good substrate”.

As to C6d-coelenterazine, the “Relative maximum luminescence intensity (Imax)” value in series [1] is recorded as 0.8. For the same compound, the “Relative amount … (1 min.)” value in series [1] amounted to 0.7. For the same compound, the “Maximum Luminescence Intensity (Imax, %)” value came out at 0.02% on Renilla luciferase; 0.8% in the series with Gaussia luciferase; 0.03% at Aequorin; 9.0% in series [2]; 0.12% with Renilla luciferase 547. The “Relative Amount … (1 min, %)” value at Renilla luciferase is “(0.02) %”; in the series with Gaussia luciferase, “(0.8) %”; at Aequorin it was “(0.03) %”; in series [2] it was “(7.7) %”; in the series with Renilla luciferase 547 it was “(0.12) %”.

On to coelenterazine [Coelenterazine (CTZ)], for which the “Relative maximum luminescence intensity (Imax)” value in series [1] is 1.0. In addition, in series [1], the “Relative amount … (1 min.)” value was 1.0. For the same compound, the “Maximum Luminescence Intensity (Imax, %)” value (on Renilla luciferase; in the series on Gaussia luciferase; at Aequorin; in series [2]; in the series with Renilla luciferase 547) was 100% in each case. In addition, the “Relative Amount … (1 min, %)” value (on Renilla luciferase; in the series with Gaussia luciferase; at Aequorin; in series [2]; with Renilla luciferase 547) was “(100) %” throughout. Also, the entries for the “Residual Ratio of Coelenterazine Analog (%)” value in series [3] (setting [4]) and in series [3] (setting [5]) were 100% and 2%, respectively.

`O=c1c(Cc2ccco2)nc2c(Cc3ccccc3)[nH]c(-c3ccccc3)cn1-2` [Furimazine]: in series [1], the “Luminescence pattern (decay)” value is on record as “did not exhibit a rapid decay”. Besides, the “Relative maximum luminescence intensity (Imax)” value in series [1] is 5.5. The “Relative amount … (1 min.)” value in series [1] is 5.7. The “Maximum Luminescence Intensity (Imax, %)” value worked out at 0.01% on Renilla luciferase; 0% in the series on Gaussia luciferase; 0.02% at Aequorin; 72.2% in series [2]; 0.01% in the series with Renilla luciferase 547. For the same compound, the “Relative Amount … (1 min, %)” value was “(0.01) %” on Renilla luciferase; “(0) %” with Gaussia luciferase; “(0.02) %” on Aequorin; “(65.2) %” in series [2]; “(0.01) %” in the series with Renilla luciferase 547. The “Residual Ratio of Coelenterazine Analog (%)” value in series [3] (setting [4]) is 100%; in series [3] (setting [5]), 3%.

As to `O=c1c(Cc2ccc(F)cc2)nc2c(Cc3ccccc3)[nH]c(-c3ccc(O)cc3)cn1-2` [f-Coelenterazine], the “Relative maximum luminescence intensity (Imax)” value in series [1] turned out to be 19.5. The “Relative amount … (1 min.)” value in series [1] was 11.1. Moreover, the “Maximum Luminescence Intensity (Imax, %)” value on Renilla luciferase turned out to be 65.3%; in the series on Gaussia luciferase it was 5.0%; on Aequorin it was 42.3%; in series [2] it was 78.6%; in the series with Renilla luciferase 547 it was 78.0%. In addition, the “Relative Amount … (1 min, %)” value is reported as “(71.4) %” at Renilla luciferase; “(10) %” in the series on Gaussia luciferase; “(59.0) %” at Aequorin; “(85.7) %” in series [2]; “(68.1) %” in the series with Renilla luciferase 547.
